# Assay results published in ChEMBL document CHEMBL5226359, “Recent research and development of inhibitors targeting sentrin-specific protease 1 for the treatment of cancers” (Eur J Med Chem, 2022).
# Legend:
# [1] = target: T1, Sentrin-specific protease 1 (Homo sapiens, UniProt Q9P0U3); assay: Inhibition of SENP1 (unknown origin)
# T1 sequence (Q9P0U3 whole entry): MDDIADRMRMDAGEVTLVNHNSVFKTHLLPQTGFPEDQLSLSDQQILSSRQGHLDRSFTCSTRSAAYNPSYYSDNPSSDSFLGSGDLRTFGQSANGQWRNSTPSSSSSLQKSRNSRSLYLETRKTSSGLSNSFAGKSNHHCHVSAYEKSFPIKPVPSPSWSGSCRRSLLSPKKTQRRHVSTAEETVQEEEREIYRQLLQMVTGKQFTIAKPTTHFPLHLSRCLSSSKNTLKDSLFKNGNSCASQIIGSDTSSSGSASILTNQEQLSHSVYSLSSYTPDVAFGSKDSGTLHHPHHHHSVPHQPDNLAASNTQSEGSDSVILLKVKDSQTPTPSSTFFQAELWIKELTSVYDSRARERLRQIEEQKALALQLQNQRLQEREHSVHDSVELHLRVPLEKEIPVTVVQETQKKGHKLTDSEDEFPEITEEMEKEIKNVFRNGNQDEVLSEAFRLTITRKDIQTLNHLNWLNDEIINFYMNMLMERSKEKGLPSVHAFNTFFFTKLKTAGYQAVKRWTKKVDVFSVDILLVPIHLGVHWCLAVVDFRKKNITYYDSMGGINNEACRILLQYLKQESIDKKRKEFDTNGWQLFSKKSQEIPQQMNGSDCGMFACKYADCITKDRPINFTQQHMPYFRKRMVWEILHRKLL
# [2] = target: T1, Sentrin-specific protease 1; assay: Inhibition of human full-length recombinant SENP1
Compound,IC50 [1] [µM],IC50 [2] [µM]
Cc1cc(OCC(=O)Nc2nonc2NC(=O)COc2ccc(Cl)c(C)c2)ccc1Cl,> 30,–
CCCCOc1ccc(-c2nonc2NC(=O)COc2ccccc2C)cc1,> 30,–
O=C(Cc1ccccc1)Oc1c(OC(=O)Cc2ccccc2)c(-c2ccc(O)cc2)c(O)c(O)c1-c1ccc(O)cc1 [VIALININ A],–,1.6
